Results from patent publication US20230183640A1, “METABOLIC INHIBITORS WITH EFFICACY FOR INHIBITING SULFIDE PRODUCTION IN HARSH ENVIRONMENTS” (MC (US) 3 LLC, priority 2020, published 2023).

Columns and labels:
[1] = test system: sulfate reducing bacteria; test: Efficacy in inhibiting H2S production from sulfate reducing bacteria; type: cell-based
Procedure: To understand the hydrogen sulfide inhibition efficacy of the N-hydroxycarboxamide compounds of the present invention, several compounds were tested. Some compounds that can be used in this H2S inhibiting composition are disclosed in Table 2. For the testing procedures, the compounds were dissolved in DMSO, resulting in a stock solution of about 8000-100000 ppm, which was subsequently diluted in 96-well plates or 10 mL serum vials containing media and selected culture to give varying concentrations from 0.09 to 1000 ppm of the compounds in final solution for efficacy testing.
Strains of commonly found bacteria were used for testing the efficacy of the compounds, viz. Desulfovibrio alaskensis, Desulfovibrio longus and Desulfovibrio gabonensis. Media for the cultures was also prepared by using a standard method. The cultures were aseptically used and incubated under anaerobic conditions. Two well established methods were used for testing various compounds:
The compounds C1, C12, C14, C15 and C16 were tested individually to understand each of their efficacies in inhibiting the H2S production from sulfate reducing bacteria, under standard temperature and pressure conditions. The efficacy of compounds C14 and C15 against hydrogen sulfide production are disclosed in Example 1, Tables 6 and 7.

[2] = test system: Desulfovibrio alaskensis 14563; test: H2S and Log (Growth) efficacy against SRB, 96-Well Plate Method; type: cell-based
Procedure: A lyophilized Desulfovibrio alaskensis 14563, Desulfovibrio longus 51456, and Desulfovibrio gabonensis 700201 pure cultures received from ATCC were resuspended individually in 500 ul of MB 1250. Aseptically, the content was transferred to a 5-mL tube of MB1250 medium. The cultures were incubated in an anaerobic chamber at 30° C. for 72 hrs. Subsequently, an individual stock culture with a final concentration of 25% glycerol were prepared by adding equal volumes of culture and 50% glycerol. 1 ml of the cultures were then transferred to 2-ml cryogenic vials and stored at −80° C. The purity of the stock cultures was evaluated through PCR, by amplifying the 16S rDNA region, and thus, it was verified that the original ATCC sample was a pure culture. 48-hour cultures of ATCC Desulfovibrio alaskensis 14563, Desulfovibrio longus 51456, and Desulfovibrio gabonensis 700201 were prepared in an anaerobic chamber. Each culture was prepared as a 1:10 culture by taking 1 milliliter (mL) of a pure culture and inoculating 9 milliliters (mL) of fresh MB1250 media. The Desulfovibrio alaskensis 14563 and Desulfovibrio gabonensis 700201 were all grown at 30° C. and the Desulfovibrio longus 51456 culture was grown at 35° C.
After the 48-hour incubation, 600 microliters (μL) were taken from each culture and optical density (OD) was measured using a Thermofisher Spectronic 200 Spectrophotometer at 600 nm. Each culture was diluted to 0.05 OD600 in fresh MB1250 media and added to the 96 well plates. Edge wells were not used due to their inherent variability and evaporation of the media. Each of the components were added at their respective concentrations for a final volume of 500 μL per well. In Table 3, 6 and 7, the concentrations of the compound used for the experiments are listed. Each experiment was done with at least three replicates for different treatments and non-treatment controls. […] Plates were then sealed with a titer-top and placed into anaerobic boxes and incubated in an anaerobic incubator at 30° C.
At each time point, sulfide samples were taken, and enumeration plates were made. Enumeration plates were made to determine the log growth in each dosed sample. For this process, enumeration plates were prepared by adding 180 μL fresh media MB1250 containing 0.01 wt % ferrous ammonium sulfate. 20 μL was taken from each well of the challenge plates and transferred to the enumeration plates using a 20-200 μL multichannel pipette. Enumeration plates were mixed three times using the multichannel pipette and serial diluted down the plate tenfold (20 μL into 180 μL). This serial dilution process was repeated for all challenge plate rows giving a total of 6 enumeration plates.
After 7 days these enumeration plates were read. The ferrous ammonium sulfate in each plate would be converted to iron sulfide, changing wells with SRB growth from clear to black. By counting the number of black wells in a row, the log growth from the original well in the challenge plate can be determined.
To determine hydrogen sulfide production in each sample, sulfide samples were also taken from each challenge plate. From each well, 9 μL were taken and added to 60 μL of 2% zinc acetate with 0.02% acetic acid. Then, 180 μL of milliQ water was added. 60 μL of stock solution 1 containing 64% sulfuric acid, <1% Dimethyl-4-phenylenediamine (DMPD), water to 100% was added to each well on the plates. This was followed by 3 μL of stock solution 3 containing 50% Iron (III) chloride. All chemicals are ordered from Fisher Scientific and used as received. These were mixed three times and read after 15 minutes. The plates were read at 670 nm using a Biotek microplate reader. Absorbance readings were converted to mM using a standard curve and this was converted to parts per million using the molar mass of sulfur. The standard curves were made using sodium sulfide nonahydrate solutions to give final solutions of 0, 0.125, 0.25 0.5, 1.0, and 1.5 ppm.

O=C(CCCN1C(=O)c2cccc3cccc(c23)C1=O)NO [C12]
efficacy for inhibiting hydrogen sulfide production ([1]; anaerobic conditions): high efficacy | H2S ([2]; Table 6 run, 2 days, 7.615 PPM): 77.6 PPM | Log (Growth) ([2]; Table 6 run, 2 days, 7.615 PPM): 7 | H2S ([2]; Table 6 run, 2 days, 15.75 PPM): 115.3 PPM | Log (Growth) ([2]; Table 6 run, 2 days, 15.75 PPM): 7.5 | H2S ([2]; Table 6 run, 2 days, 31.25 PPM): 90.1 PPM | Log (Growth) ([2]; Table 6 run, 2 days, 31.25 PPM): 7.0 | H2S ([2]; Table 6 run, 2 days, 125 PPM): 91.4 PPM | Log (Growth) ([2]; Table 6 run, 2 days, 125 PPM): 7.0 | H2S ([2]; Table 6 run, 2 days, 500 PPM): 8.7 PPM | Log (Growth) ([2]; Table 6 run, 2 days, 500 PPM): 0.0 | H2S ([2]; Table 6 run, 2 days, 1000 PPM): 5.4 PPM | Log (Growth) ([2]; Table 6 run, 2 days, 1000 PPM): 0.0 | H2S ([2]; Table 6 run, 5 days, 7.615 PPM): 17.5 PPM | Log (Growth) ([2]; Table 6 run, 5 days, 7.615 PPM): 8.0 | H2S ([2]; Table 6 run, 5 days, 15.75 PPM): 26.7 PPM | Log (Growth) ([2]; Table 6 run, 5 days, 15.75 PPM): 8.0 | H2S ([2]; Table 6 run, 5 days, 31.25 PPM): 42.5 PPM | Log (Growth) ([2]; Table 6 run, 5 days, 31.25 PPM): 7.0 | H2S ([2]; Table 6 run, 5 days, 125 PPM): 21.3 PPM | Log (Growth) ([2]; Table 6 run, 5 days, 125 PPM): 3.0 | H2S ([2]; Table 6 run, 5 days, 500 PPM): 6.1 PPM | Log (Growth) ([2]; Table 6 run, 5 days, 500 PPM): 0.0 | H2S ([2]; Table 6 run, 5 days, 1000 PPM): 4.8 PPM | Log (Growth) ([2]; Table 6 run, 5 days, 1000 PPM): 0.0 | H2S ([2]; Table 7 run, 2 days, 7.615 PPM): 67.5 PPM | Log (Growth) ([2]; Table 7 run, 2 days, 7.615 PPM): 8.0 | H2S ([2]; Table 7 run, 2 days, 15.75 PPM): 43.7 PPM | Log (Growth) ([2]; Table 7 run, 2 days, 15.75 PPM): 7.3 | H2S ([2]; Table 7 run, 2 days, 31.25 PPM): 18.2 PPM | Log (Growth) ([2]; Table 7 run, 2 days, 31.25 PPM): 7.5 | H2S ([2]; Table 7 run, 2 days, 125 PPM): 12.2 PPM | Log (Growth) ([2]; Table 7 run, 2 days, 125 PPM): 5.0 | H2S ([2]; Table 7 run, 2 days, 500 PPM): 2.2 PPM | Log (Growth) ([2]; Table 7 run, 2 days, 500 PPM): 3.0 | H2S ([2]; Table 7 run, 2 days, 1000 PPM): 1.8 PPM | Log (Growth) ([2]; Table 7 run, 2 days, 1000 PPM): 2.5 | H2S ([2]; Table 7 run, 5 days, 7.615 PPM): 30.6 PPM | Log (Growth) ([2]; Table 7 run, 5 days, 7.615 PPM): 7.3 | H2S ([2]; Table 7 run, 5 days, 15.75 PPM): 34.4 PPM | Log (Growth) ([2]; Table 7 run, 5 days, 15.75 PPM): 6.7 | H2S ([2]; Table 7 run, 5 days, 31.25 PPM): 15.1 PPM | Log (Growth) ([2]; Table 7 run, 5 days, 31.25 PPM): 5.5 | H2S ([2]; Table 7 run, 5 days, 125 PPM): 6.2 PPM | Log (Growth) ([2]; Table 7 run, 5 days, 125 PPM): 5.0 | H2S ([2]; Table 7 run, 5 days, 500 PPM): 1.9 PPM | Log (Growth) ([2]; Table 7 run, 5 days, 500 PPM): 0.0 | H2S ([2]; Table 7 run, 5 days, 1000 PPM): 2.0 PPM | Log (Growth) ([2]; Table 7 run, 5 days, 1000 PPM): 0.0

O=C(CCCCCCC(=O)NO)NO [C14]
activity in reducing H2S production ([1]; Tables 6 and 7): did not show significant activity | H2S ([2]; Table 6 run, 2 days, 7.615 PPM): 71.3 PPM | Log (Growth) ([2]; Table 6 run, 2 days, 7.615 PPM): 7.0 | H2S ([2]; Table 6 run, 2 days, 15.75 PPM): 56.4 PPM | Log (Growth) ([2]; Table 6 run, 2 days, 15.75 PPM): 8.0 | H2S ([2]; Table 6 run, 2 days, 31.25 PPM): 56.3 PPM | Log (Growth) ([2]; Table 6 run, 2 days, 31.25 PPM): 7.3 | H2S ([2]; Table 6 run, 2 days, 125 PPM): 131.9 PPM | Log (Growth) ([2]; Table 6 run, 2 days, 125 PPM): 8.0 | H2S ([2]; Table 6 run, 2 days, 500 PPM): 54.6 PPM | Log (Growth) ([2]; Table 6 run, 2 days, 500 PPM): 7.7 | H2S ([2]; Table 6 run, 2 days, 1000 PPM): 117.5 PPM | Log (Growth) ([2]; Table 6 run, 2 days, 1000 PPM): 7.7 | H2S ([2]; Table 6 run, 5 days, 7.615 PPM): 45.6 PPM | Log (Growth) ([2]; Table 6 run, 5 days, 7.615 PPM): 7.3 | H2S ([2]; Table 6 run, 5 days, 15.75 PPM): 34.7 PPM | Log (Growth) ([2]; Table 6 run, 5 days, 15.75 PPM): 7.3 | H2S ([2]; Table 6 run, 5 days, 31.25 PPM): 29.0 PPM | Log (Growth) ([2]; Table 6 run, 5 days, 31.25 PPM): 7.3 | H2S ([2]; Table 6 run, 5 days, 125 PPM): 45.0 PPM | Log (Growth) ([2]; Table 6 run, 5 days, 125 PPM): 7.3 | H2S ([2]; Table 6 run, 5 days, 500 PPM): 42.2 PPM | Log (Growth) ([2]; Table 6 run, 5 days, 500 PPM): 7.0 | H2S ([2]; Table 6 run, 5 days, 1000 PPM): 38.6 PPM | Log (Growth) ([2]; Table 6 run, 5 days, 1000 PPM): 8.0
